According to patent publication US11596641B2, “Methods and compositions for treating meibomian gland dysfunction” (priority 2020, dated 2023):
Counter-ions that a name gives are not always drawn. Like-named read-outs stand apart in the source and are kept apart here.

Experiment: pKa values
Format: physicochemical

Compound	pKa (first of three pKa values, read-out: pKa value (first given))	pKa (second of three pKa values, read-out: pKa value)	pKa (third of three pKa values, read-out: pKa value (third printed))	pKa value (third printed) (third of three pKa values, hydrochloride)
CN(C)c1ccc(O)c2c1C[C@H]1C[C@H]3[C@H](N(C)C)C(O)=C(C(N)=O)C(=O)[C@@]3(O)C(O)=C1C2=O [minocycline]	3.5	7.6	9.2	–
CN(C)c1ccc(O)c2c1C[C@H]1C[C@H]3[C@H](N(C)C)C(O)=C(C(N)=O)C(=O)[C@@]3(O)C(O)=C1C2=O [minocycline hydrochloride]	–	–	–	9.3
